Source: US20240016150A1, “MIXTURES CONTAINING METARYLPICOXAMID” (BASF SE, priority 2020, published 2024)

How the values were obtained:
Phakopsora pachyrhizi = assay: Greenhouse: curative control of soybean rust on soybeans; assay type: in vivo; conditions: single active, sprayed to run-off, soybean seedlings, assessed after 14 days
Description: EXAMPLE 1—Curative control of soybean rust on soybeans caused by Phakopsora pachyrhizi
Leaves of potted soybean seedlings were inoculated with spores of Phakopsora pachyrhizi. To ensure the success of the artificial inoculation, the plants were transferred to a humid chamber with a relative humidity of about 95% and 20 to 24 ? C for 24 h. The next day the plants were cultivated for 2 days in a greenhouse chamber at 23-27 °C and a relative humidity between 60 and 80%. Then the plants were sprayed to run-off with the previously described spray solution, containing the concentration of active ingredient or their mixture as described below. The plants were allowed to air-dry. Then the trial plants were cultivated for 14 days in a greenhouse chamber at 23-27 °C and a relative humidity between 60 and 80%. The extent of fungal attack on the leaves was visually assessed as % diseased leaf area.
The disease ratings (or diseased leaf area) were converted into efficacies.
An efficacy of 0 means that the infection level of the treated plants corresponds to that of the untreated control plants; an efficacy of 100 means that the treated plants were not infected.
The expected efficacies of active compound mixtures were determined using Colby's formula [R.S. Colby, “Calculating synergistic and antagonistic responses of herbicide combinations”, Weeds 15, 20-22 (1967)] and compared with the observed efficacies.

Septoria tritici = assay: Microtest: activity against leaf blotch on wheat; assay type: cell-based; conditions: single active, MTP, 405 nm, 7 days after inoculation
Description: The active compounds were formulated separately as a stock solution having a concentration of 10000 ppm in dimethyl sulfoxide. The stock solutions were mixed according to the ratio, pipetted onto a micro titer plate (MTP) and diluted with water to the stated concentrations. EXAMPLE 1—Activity against leaf blotch on wheat caused by Septoria tritici A spore suspension of Septoria tritici in an aqueous biomalt or yeast-bactopeptone-glycerine or DOB solution was then added. The plates were placed in a water vapor-saturated chamber at a temperature of 18° C. Using an absorption photometer, the MTPs were measured at 405 nm 7 days after the inoculation. The measured parameters were compared to the growth of the active compound-free control variant (100%) and the fungus-free blank value to determine the relative growth in % of the pathogens in the respective active compounds. These percentages were converted into efficacies. An efficacy of 0 means that the growth level of the pathogens corresponds to that of the untreated control; an efficacy of 100 means that the pathogens were not growing. The expected efficacies of active compound mixtures were determined using Colby's formula [R.S. Colby, “Calculating synergistic and antagonistic responses of herbicide combinations”, Weeds 15, 20-22 (1967)] and compared with the observed efficacies.

Alternaria solani = assay: Microtest: activity against early blight; assay type: cell-based; conditions: single active, MTP, 405 nm, 7 days after inoculation
Description: The active compounds were formulated separately as a stock solution having a concentration of 10000 ppm in dimethyl sulfoxide. The stock solutions were mixed according to the ratio, pipetted onto a micro titer plate (MTP) and diluted with water to the stated concentrations. Example 2—Activity against early blight caused by Alternaria solani A spore suspension of Alternaria solani in an aqueous biomalt or yeast-bactopeptone-glycerine or DOB solution was then added. The plates were placed in a water vapor-saturated chamber at a temperature of 18° C. Using an absorption photometer, the MTPs were measured at 405 nm 7 days after the inoculation. The measured parameters were compared to the growth of the active compound-free control variant (100%) and the fungus-free blank value to determine the relative growth in % of the pathogens in the respective active compounds. These percentages were converted into efficacies. An efficacy of 0 means that the growth level of the pathogens corresponds to that of the untreated control; an efficacy of 100 means that the pathogens were not growing. The expected efficacies of active compound mixtures were determined using Colby's formula [R.S. Colby, “Calculating synergistic and antagonistic responses of herbicide combinations”, Weeds 15, 20-22 (1967)] and compared with the observed efficacies.

SMILES	Observed efficacy (Phakopsora pachyrhizi; 1 ppm)	Observed efficacy (Septoria tritici; 4 ppm)	Observed efficacy (Alternaria solani; 1 ppm)	Observed efficacy (Septoria tritici; 0.063 ppm)	Observed efficacy (Septoria tritici; 0.25 ppm)	Observed efficacy (Phakopsora pachyrhizi; 0.25 ppm)	Observed efficacy (Alternaria solani; 0.016 ppm)
CCC(=O)Oc1c(OC)ccnc1C(=O)N[C@@H](C)C(=O)O[C@@H](C)[C@@H](C)c1ccccc1C [Compound I, [(1S,2S)-1-methyl-2-(o-tolyl)propyl] (2S)-2-[(4-methoxy-3-propanoyloxy-pyridine-2-carbonyl)amino]propanoate]	18	56	0				
O=C(NC1CCC1c1ccc(Cl)cc1Cl)c1cccnc1C(F)(F)F (centres unmarked) [Compound II-2, N-[2-(2,4-dichlorophenyl)cyclobutyl]-2-(trifluoromethyl)pyridine-3-carboxamide]				12	49		
CON(Cc1ccc(-c2noc(C(F)(F)F)n2)cc1)C(=O)C1CC1 [Compound II-1, N-methoxy-N-[[4-[5-(trifluoromethyl)-1,2 ,4-oxadiazol-3-yl]phenyl]methyl]cyclopropanecarboxamide]	14					0	0
